Reference: the Deep4Chem optical property database
Several values for one entry are separate records, joined by “and”; a condition that tells them apart may be missing. Equal values may be shown once.

Test: solvent given as SMILES

## CS(=O)(=O)c1ccc(-c2cc3ccc(N)cc3c(=O)o2)cc1
In CC(C)=O
  absorption maximum: 358 nm
In CCCCCCCCO
  absorption maximum: 366 nm
In CCCCO
  absorption maximum: 366 nm
In CCCO
  absorption maximum: 366 nm
In CCOC(C)=O
  absorption maximum: 356 nm
In CN(C)C=O
  absorption maximum: 367 nm
In CO
  absorption maximum: 358 nm
In ClC(Cl)Cl
  absorption maximum: 351 nm

## CN(C)c1ccc(-c2nc3cnccc3[nH]2)cc1
In C1CCCCC1
  absorption maximum: 327 nm
In C1CCOC1
  absorption maximum: 332 nm
In C1COCCO1
  absorption maximum: 331 nm
In CC#N
  absorption maximum: 335 nm
In CCCCO
  absorption maximum: 339 nm
In CCCO
  absorption maximum: 339 nm
In CCO
  absorption maximum: 340 nm
In CCOC(C)=O
  absorption maximum: 332 nm
In CCOCC
  absorption maximum: 328 nm
In CO
  absorption maximum: 341 nm
In O
  absorption maximum: 335 nm

## CCC1=C(C)C2=C(c3cc(C(=O)Cl)cc(C4=C5C(C)=C(CC)C(C)=[N+]5[B-](F)(F)n5c(C)c(CC)c(C)c54)c3)c3c(C)c(CC)c(C)n3[B-](F)(F)[N+]2=C1C
In C1CCOC1
  absorption maximum: 530 nm
In CC#N
  absorption maximum: 527 nm
In CN(C)C=O
  absorption maximum: 535 nm
In Cc1ccccc1
  absorption maximum: 534 nm
In ClC(Cl)Cl
  absorption maximum: 534 nm

## N#Cc1ccc(N)cc1
In C1CCCCC1
  absorption maximum: 283 nm
In CC#N
  absorption maximum: 272.85 nm
In CCCCCC
  absorption maximum: 260.99 nm
In CCO
  absorption maximum: 276 nm
In O
  absorption maximum: 283 nm
In OCC(F)(F)F
  absorption maximum: 264 nm

## O=Cc1cc(O)ccc1O
In C1CCOC1
  absorption maximum: 366 nm
In C1COCCO1
  absorption maximum: 363 nm
In CC#N
  absorption maximum: 362 nm
In CC(C)=O
  absorption maximum: 364 nm
In CCCO
  absorption maximum: 367 nm
In CCO
  absorption maximum: 367 nm
In CN(C)C=O
  absorption maximum: 365 nm
In CN(C)P(=O)(N(C)C)N(C)C
  absorption maximum: 369 nm
In CNC=O
  absorption maximum: 358 nm
In CO
  absorption maximum: 364 nm
In CS(C)=O
  absorption maximum: 366 nm
In ClC(Cl)Cl
  absorption maximum: 362 nm
In NC=O
  absorption maximum: 363 nm

## CCCCNC(=O)c1nc2c(N(C)C)nc(N(C)C)nc2n1Cc1ccccc1
In C1COCCO1
  absorption maximum: 332 nm
In CC#N
  absorption maximum: 333 nm
In CO
  absorption maximum: 335 nm
In ClCCl
  absorption maximum: 338 nm

## COc1ccc(C#Cc2c3cc4ccccc4cc3c(C#Cc3ccc(OC)cc3)c3cc4sc(C)cc4cc23)cc1
In ClCCl
  absorption maximum: 615 nm

## COc1cc(/C=C/C(=O)O)ccc1O
In O
  absorption maximum: 287 nm

## O=C1c2ccccc2-c2c(-c3cc(Br)ccc3O)[nH]c(=O)n21
In CC#N
  absorption maximum: 390 nm
In CO
  absorption maximum: 400 nm
In ClCCl
  absorption maximum: 396 nm

## COC(=O)/C=C/c1sc(-c2ccc(N(C)C)cc2)c(-c2ccc(OC)cc2)c1O
In CC#N
  absorption maximum: 451 nm

## CCCCN1C(=O)c2cc(Oc3ccc(C(C)(C)C)cc3)c3c4c(Oc5ccc(C(C)(C)C)cc5)cc5c(=O)n6c(c7cc(Oc8ccc(C(C)(C)C)cc8)c(c8c(Oc9ccc(C(C)(C)C)cc9)cc(c2c38)C1=O)c4c57)=Cc1ccc2ccccc2[n+]1[B-]6(F)F
In ClCCl
  absorption maximum: 648 nm

## N#Cc1ccc(N)c(/C=C/C(F)(F)F)c1
In C1CCOC1
  absorption maximum: 348 nm

## CCn1c2ccccc2c2c3nsnc3c3c4ccccc4n(CC)c3c21
In CN(C)C=O
  absorption maximum: 420 nm
In Cc1ccccc1
  absorption maximum: 420 nm
In ClCCl
  absorption maximum: 420 nm

## C(#Cc1ccccc1)C1=Cc2ccc3ccccc3c2NB1c1ccccc1
In C1CCCCC1
  absorption maximum: 387 nm

## Cc1ccc(N(c2ccc(C)cc2)c2ccc(-c3ccc4c(c3)C(=O)c3ccccc3C4=O)cc2)cc1
In C1CCOC1
  absorption maximum: 463 nm
In CCCCCC
  absorption maximum: 457 nm
In CCOC(C)=O
  absorption maximum: 461 nm
In CCOCC
  absorption maximum: 459 nm
In Cc1ccccc1
  absorption maximum: 470 nm
In ClC(Cl)(Cl)Cl
  absorption maximum: 474 nm
In ClCCl
  absorption maximum: 476 nm

## COC(=O)[C@H](Cc1ccccc1)Nc1c(C(C)=O)c(=O)oc2cc(N(C)C)ccc12
In ClCCl
  absorption maximum: 373 nm

## COc1ccc(N(c2ccc(OC)cc2)c2ccc3ccc4c(B(c5c(C)cc(C)cc5C)c5c(C)cc(C)cc5C)ccc5ccc2c3c54)cc1
In C1CCOC1
  absorption maximum: 465 nm
In CC(C)=O
  absorption maximum: 459 nm
In CCCCCC
  absorption maximum: 463 nm
In Cc1ccccc1
  absorption maximum: 469 nm
In ClC(Cl)Cl
  absorption maximum: 461 nm
In ClCCl
  absorption maximum: 461 nm

## Cc1oc(-c2ccccc2)nc1C(=O)O
In C1CCCCC1
  absorption maximum: 269 nm
In CC#N
  absorption maximum: 267 nm
In CCO
  absorption maximum: 273 nm
In CCOC(C)=O
  absorption maximum: 267 nm
In O
  absorption maximum: 273 nm

## CN(C)c1ccc(/C=C/c2cc(/C=C/c3ccc(N(C)C)cc3)nc(N)n2)cc1
In Cc1ccccc1
  absorption maximum: 414 nm
In ClC(Cl)Cl
  absorption maximum: 426 nm

## CCN(CC)c1ccc2c(-c3ccccc3C(=O)O)c3c([o+]c2c1)/C(=C/c1ccc(N(C)C)s1)CCC3
In ClCCl
  absorption maximum: 733 nm

## CCC1=C(C)C(=O)n2c1cc1[nH]c(C(=O)OC(C)(C)C)c(C)c1c2=O
In C1CCCCC1
  absorption maximum: 392 nm
In CO
  absorption maximum: 397 nm
In CS(C)=O
  absorption maximum: 397 nm
In ClC(Cl)Cl
  absorption maximum: 397 nm
In c1ccccc1
  absorption maximum: 396 nm

## CN(C)c1ccc2nc(-c3ccc(C(=O)Nc4ccccc4)cc3)sc2c1
In C1CCCCC1
  absorption maximum: 387 nm and 384 nm
In CC#N
  absorption maximum: 388 nm
In CC(C)O
  absorption maximum: 389 nm
In CO
  absorption maximum: 389 nm
In CS(C)=O
  absorption maximum: 396 nm
In ClC(Cl)Cl
  absorption maximum: 383 nm
In c1ccccc1
  absorption maximum: 392 nm

## COc1cc(C=O)cc(-c2[nH]c(=O)n3c2-c2ccccc2C3=O)c1O
In CC#N
  absorption maximum: 390 nm
In CO
  absorption maximum: 398 nm
In ClCCl
  absorption maximum: 390 nm

## CC[N+]1(CC)CN2C(=N1)C(C(=O)O)=Cc1ccc(OC)cc12
In O
  absorption maximum: 372 nm

## COc1ccc(-n2nc(C(=O)c3ccc(Cl)cc3)c(N3CCCC3)n2)cc1
In CC#N
  absorption maximum: 381 nm

## CC(C)=N[O-]
In CCO
  absorption maximum: 265 nm

## C1=Cc2ccc(N(c3ccccc3)c3ccccc3)cc2C2(c3cc(N(c4ccccc4)c4ccccc4)ccc31)c1ccccc1-c1ccccc12
In ClCCl
  absorption maximum: 406 nm

## C1=Cc2nc1c(-c1cccs1)c1ccc([nH]1)c(-c1cccs1)c1nc(c(-c3cccs3)c3ccc([nH]3)c2-c2cccs2)C=C1
In CN(C)C=O
  absorption maximum: 661 nm
In ClCCl
  absorption maximum: 426 nm

## F[B-]1(F)Oc2ccc(Br)cc2-c2c3c(c4c([n+]21)CCc1ccccc1-4)CCc1ccccc1-3
In ClCCl
  absorption maximum: 347 nm

## F[B-]1(F)n2c(c(-c3ccccc3)c(-c3ccccc3)c2-c2ccccc2)C(c2ccccc2)=C2C(c3ccccc3)=C(c3ccccc3)C(c3ccccc3)=[N+]21
In C1CCOC1
  absorption maximum: 573 nm

## N#CC(C#N)=C(c1ccc(N(c2ccccc2)c2ccccc2)cc1)c1ccc(N(c2ccccc2)c2ccccc2)cc1
In C1CCCCC1
  absorption maximum: 367.21 nm
In CC(C)=O
  absorption maximum: 370.45 nm
In CN(C)C=O
  absorption maximum: 374.03 nm
In Cc1ccccc1
  absorption maximum: 374.03 nm
In ClC(Cl)Cl
  absorption maximum: 381.49 nm

## Cc1ccc(-c2c3nc(c(-c4ccc(C)cc4)c4ccc([nH]4)c(-c4ccc(OC(=O)C(C)c5ccc(CC(C)C)cc5)cc4)c4nc(c(-c5ccc(C)cc5)c5ccc2[nH]5)C=C4)C=C3)cc1 (stereo unspecified)
In ClCCl
  absorption maximum: 649 nm

## CCCCOc1c(C=C2N(C)c3ccccc3C2(C)C)c(=O)c1=S
In CCO
  absorption maximum: 500 nm

## CCCCCCOc1cc(N(CC)CC)ccc1/C=C(\C#N)c1ccc(/C=C/C(=C(C#N)C#N)c2ccc3c(c2)c2ccccc2n3CC)s1
In ClCCl
  absorption maximum: 570 nm

## O=C1CCCC2=C1CC1=C(CCCC1=O)N2NC(=O)c1ccccc1
In C1CCOC1
  absorption maximum: 366 nm
In CC#N
  absorption maximum: 368 nm
In CC(C)=O
  absorption maximum: 366 nm
In CCCCCO
  absorption maximum: 376 nm
In CO
  absorption maximum: 374 nm
In ClC(Cl)Cl
  absorption maximum: 370 nm
In ClCCl
  absorption maximum: 364 nm

## Cc1ccccc1-c1c2ccc(=[N+]3CCOCC3)cc-2oc2cc(N3CCCCC3)ccc12
In CCO
  absorption maximum: 560 nm
In ClCCl
  absorption maximum: 559 nm

## CCN(CC)c1cc2oc3cc(O)c(F)cc3c(=O)c2cc1F
In CCO
  absorption maximum: 379 nm

## Cc1cc(=O)oc2ccc3ccc(O)cc3c12
In CC#N
  absorption maximum: 347 nm
In CCO
  absorption maximum: 350 nm

## Cc1cc2ccccc2c2c1c1ccccc1n2-c1ccc(N(c2ccccc2)c2ccccc2)cc1
In ClCCl
  absorption maximum: 304 nm

## C1=Nc2cccc3cccc(c23)N1
In CC#N
  absorption maximum: 329 nm
In CO
  absorption maximum: 329 nm
In CS(C)=O
  absorption maximum: 333 nm
In Cc1ccccc1
  absorption maximum: 331 nm

## C(#Cc1ncnc2ccccc12)c1ccc(N(c2ccccc2)c2ccccc2)cc1
In ClCCl
  absorption maximum: 411 nm

## N#Cc1cc2ccc(cc2)c2cccc3cccc(c4ccc(cc4)cc(C#N)c4ccc(cc4)c4cccc5cccc(c6ccc1cc6)c54)c32
In Cc1ccccc1
  absorption maximum: 350 nm

## COc1ccc2c(c1)[n+]([O-])nc(N)[n+]2[O-]
In CC#N
  absorption maximum: 432 nm
In O
  absorption maximum: 440 nm

## O=[N+]([O-])c1cccs1
In CO
  absorption maximum: 308 nm
In O
  absorption maximum: 318 nm

## CN(C)c1nc(N)nc2c1nc(C#N)n2Cc1ccccc1
In C1COCCO1
  absorption maximum: 334 nm
In CC#N
  absorption maximum: 326 nm
In CO
  absorption maximum: 327 nm
In ClCCl
  absorption maximum: 324 nm

## Cc1ccc(-n2c(-c3ccc(N(c4ccc(-c5ccc(N(c6ccc(-c7nc8c9ccccc9c9ccccc9c8n7-c7ccc(C)cc7)cc6)c6ccc(-c7nc8c9ccccc9c9ccccc9c8n7-c7ccc(C)cc7)cc6)cc5)cc4)c4ccc(-c5nc6c7ccccc7c7ccccc7c6n5-c5ccc(C)cc5)cc4)cc3)nc3c4ccccc4c4ccccc4c32)cc1
In ClCCl
  absorption maximum: 376 nm

## c1ccc(-c2nc(-c3ccccc3)nc(-c3ccc(-n4c5ccccc5c5cc6c(cc54)C4c5ccccc5C6c5ccccc54)cc3)n2)cc1
In Cc1ccccc1
  absorption maximum: 373 nm

## Fc1ccc(/C=C/c2nc3c4ccccc4c4ccccc4c3o2)cc1
In CC#N
  absorption maximum: 363 nm

## N#Cc1nc2c3ccc(-c4ccc(-n5c6ccccc6c6ccccc65)cc4)cc3c3cc(-c4ccc(-n5c6ccccc6c6ccccc65)cc4)ccc3c2nc1C#N
In Cc1ccccc1
  absorption maximum: 418 nm

## CCC(C)(C)c1ccc(-c2ccc3c(c2)C(CCOC)(CCOC)c2cc(C(C)(C)CC)ccc2-3)cc1
In C1CCCCC1
  absorption maximum: 318 nm

## Cc1cc(N2c3ccccc3C(C)(C)c3ccccc32)ccc1-c1cc(-c2ccc(N3c4ccccc4C(C)(C)c4ccccc43)cc2C)ncn1
In Cc1ccccc1
  absorption maximum: 375.94 nm

## CC(C)(C)NC(=O)c1cccc2ccc3c4cc(F)ccc4c4ccc(F)cc4c3c12
In ClCCl
  absorption maximum: 334 nm
